Inhibition of growth data for eleven molecules are collected here from ChEMBL document CHEMBL3407428, “Synthesis, in vitro and in vivo antitumor activity of scopoletin-cinnamic acid hybrids” (Eur J Med Chem, 2015).

Common to all, as to format: functional
Assay [1] in a line: Cytotoxicity against human HCT116 cells assessed as growth inhibition at 10^-5 M after 72 hrs by MTT assay relative to control. The settings on record: HCT-116, 72 h, read-out: GI. Background: Tetrazolium assays rely on reduction of a dye to a coloured formazan, in cell work by metabolically active cells.
Another assay relates to MCF7. Nature of the assay: Cytotoxicity against human MCF7 cells assessed as growth inhibition at 10^-5 M after 72 hrs by MTT assay relative to control. The settings on record: MCF7, 72 h, read-out: GI.
Another assay deals with A549. Briefly: Cytotoxicity against human A549 cells assessed as growth inhibition at 10^-5 M after 72 hrs by MTT assay relative to control. The settings on record: A549, 72 h, read-out: GI.
In another assay the test system is MDA-MB-231. Nature of the assay: Cytotoxicity against human MDA-MB-231 cells assessed as growth inhibition at 10^-5 M after 72 hrs by MTT assay relative to control. The settings on record: MDA-MB-231, 72 h, read-out: GI.
Another assay deals with HeLa. Briefly: Cytotoxicity against human HeLa cells assessed as growth inhibition at 10^-5 M after 72 hrs by MTT assay relative to control. The note with it: read-out: GI.

As for `COc1cc2ccc(=O)oc2cc1OC(=O)/C=C/c1ccc(F)cc1`, the inhibition of growth at 10 µM in assay [1] amounted to 18%; in the assay with MCF7 it was 1.77%; in the assay on A549, 21.4%; in the assay with MDA-MB-231 it was 19.3%; in the assay with HeLa, 3.89%.
As to `COc1cc2cc(NC(=O)/C=C/c3ccc(C#N)cc3)c(=O)oc2cc1O`, the inhibition of growth at 10 µM in assay [1] came out at 14.1%; in the assay on MCF7 it was 27.3%; with A549, 36.9%; in the assay on MDA-MB-231 it was 13.1%; in the assay on HeLa, 27.1%.
For `COc1cc2cc(NC(=O)/C=C/c3cc(OC)c(OC)c(OC)c3)c(=O)oc2cc1O`, the inhibition of growth at 10 µM in assay [1] stood at 7.11%; with MCF7, 18.3%; in the assay on A549, 4.87%; in the assay with MDA-MB-231, 12.9%; in the assay on HeLa, 9.45%.
For the molecule `COc1cc2ccc(=O)oc2cc1OC(=O)/C=C/c1ccc(Cl)cc1`, the inhibition of growth at 10 µM was found to be 21.1% in assay [1]; 22.8% in the assay on MCF7; 2.73% with A549; 20.3% in the assay with MDA-MB-231; 22.4% in the assay with HeLa.
For the molecule `COc1cc2ccc(=O)oc2cc1OC(=O)/C=C/c1cc(OC)c(OC)c(OC)c1`, the inhibition of growth at 10 µM in assay [1] was determined as 18.9%; in the assay on MCF7 it was 18%; in the assay with A549, 20.6%; in the assay with MDA-MB-231, 11.8%; in the assay on HeLa, 0.93%.
Consider `COc1cc2ccc(=O)oc2cc1OC(=O)/C=C/c1ccc(C#N)cc1`, for which the inhibition of growth at 10 µM is 13.6% in assay [1]; 10.5% in the assay with MCF7; 17.9% in the assay with A549; 14.3% with MDA-MB-231; 13.2% with HeLa.
Regarding `COc1cc(CCC(=O)Oc2cc3oc(=O)ccc3cc2OC)ccc1O`, the inhibition of growth at 10 µM worked out at 16.1% in assay [1]; 8.55% in the assay on MCF7; 6.16% in the assay with A549; 9.73% in the assay with MDA-MB-231; 15.4% in the assay with HeLa.
In the same order, the values of `COc1cc(/C=C/C(=O)Oc2cc3oc(=O)ccc3cc2OC)ccc1OCc1ccccc1` are 4.36%, 9.91%, 10.4%, 1.39% and 2.36%.
Consider `COc1ccc(/C=C/C(=O)Oc2cc3oc(=O)ccc3cc2OC)cc1`, for which the inhibition of growth at 10 µM in assay [1] was 31.6%; in the assay on MCF7, 13.7%; with A549, 0.53%; in the assay with MDA-MB-231 it was 20.8%; with HeLa, 19.5%.
Consider `COc1cc2cc(NC(=O)/C=C/c3ccc(C(F)(F)F)cc3)c(=O)oc2cc1O`, for which the inhibition of growth at 10 µM in assay [1] came to 17%; in the assay with MCF7 it was 12.6%; in the assay with A549, 26.4%; in the assay on MDA-MB-231 it was 24.6%; with HeLa, 19%.
In the same order, the values of `COc1cc2ccc(=O)oc2cc1OC(=O)/C=C/c1ccccc1` are 12.2%, 3.65%, 19.4%, 10.1% and 19.4%.
